Results on one compound are retold here after patent US20200108032A1, “USE OF ISOFERULIC ACID, ISOFERULIC ACID-CONTAINING TRADITIONAL CHINESE MEDICINE EXTRACT AND CIMICIFUGAE RHIZOMA” (BEIJING DITAN HOSPITAL, CAPITAL MEDICAL UNIVERSITY, priority 2017, published 2020).

Type in all cases: in vivo, C57BL/6 mice
Assay [1] has as its system mouse model of ConA hepatitis. Description: Serum ALT and AST in mouse model of ConA hepatitis. The settings on record: serum 10 hours after ConA 15 mg/kg i.v.; doses as Experimental Example 1; MEAN ± SEM. The method, then:
(§1) The test materials and animals were the same as those in Experimental Example 1.
(§2) Grouping: C57BL/6 mice, male, 18-20 g, after 1 day of adaptive breeding, the mice were randomly divided into 6 groups: normal control group; ConA model group, Cimicifugae rhizoma compatibility group, Cimicifugae rhizoma group, Cimicifugae rhizoma total phenolic acid group and isoferulic acid group.
(§3) Model preparation and drug administration: except the normal control group, mice were injected intravenously once at a dose of ConA 15 mg/kg. The dosages of each drug group were the same as those of Experimental Example 1.
(1) The effects of each drug group on serum ALT and AST of ConA mice were examined. Eight mice in each group were sacrificed under anesthesia 10 hours after ConA injection. Peripheral blood was taken and serum was separated to detect ALT and AST.

Assay [2] relates to mouse model of ConA hepatitis. The assay can be described thus: Liver pathological damage (HE staining) in mouse model of ConA hepatitis. As to conditions: liver 10 hours after ConA 15 mg/kg; compared with the ConA group. The method, then:
as §1, §2, §3
(2) The effects of each drug group on liver pathological damage in ConA mice were examined. Three mice in each group were sacrificed under anesthesia 10 hours after ConA injection. The left lobe of the liver was taken, cut into a size of about 5 mm^3, and placed in 10% formalin solution, and dehydrated, transparently impregnated with wax, embedded, sliced, and spread, and observed after staining;

The test system of assay [3] is anti-type II collagen antibody. The assay can be described thus: Serum anti-type II collagen antibody content in CIA mice (ELISA). The settings on record: 21 days after second immunization. The source says: Test materials and animals: Consistent with Experimental Example 3. Anti-type II collagen antibody ELISA kit was purchased from Chondrex, Cytokine & Chemokine 36-Plex Mouse ProcartaPlex™ Panel 1A cytokine and chemokine detection kit was purchased from ThermoFisher.
Model preparation and drug administration: the drug dosage of each treatment group was the same as that of Experimental Example 3. After 21 days of the second immunization, the mice were anesthetized.
(2) The effects of each drug group on the anti-type II collagen antibody content in the serum of CIA mice were measured. Seven mice from each group were examined; peripheral blood was collected and separated from serum. Anti-type II collagen antibodies were detected with Elisa.

Another assay concerns CIA arthritis mice. Description: Arthritis index of CIA arthritis mice. As to conditions: for arthritis index: MEAN ± SEM. The source says:
Test materials: bovine type II collagen acetic acid solution and complete Freund's adjuvant were purchased from Chondrex company; isoferulic acid was purchased from Tianjin Yifang Technology Co., Ltd.
Animals: C57BL/6 mice, purchased from Beijing Huafukang Biotechnology Co., Ltd.
Grouping: 24 C57BL/6 mice, male, 18-20 g, after 1 day of adaptive breeding, the mice were randomly divided into 4 groups: normal control group and CIA model group, 5 mice in each group; Cimicifugae rhizoma group and isoferulic acid group, 7 mice in each group.
Model preparation and drug administration: Prepared a 2 mg/ml bovine type II collagen acetic acid solution, took 2 ml of the overnighted bovine type II collagen acetic acid solution, mixed thoroughly with 2 ml of complete Freund's adjuvant and emulsified (operation on ice), and prepared the bovine type II collagen emulsion having a final concentration of 1 mg/ml. Each mouse was injected intradermally with 0.1 ml of the emulsion. 21 days after the first immunization, mice were given a second immunization for 21 days, starting from day 0 of the second immunization, the CIA model group was given 250 μL of distilled water by gavage and the Cimicifugae rhizoma group was given 250 μL of the Cimicifugae rhizoma decoction obtained in Preparation Example 1. The crude drug dose was 2 g/kg; 250 μL of an aqueous solution of isoferulic acid was administered by gavage in the isoferulic acid group at a dose of 5 mg/kg, administered once every 3 days, and bred continuously for 21 days.
Animals were scored using the joint scoring method (grades 0-4), and the assessment was based on the degree of joint redness and swelling and joint swelling and deformation. 0 point: no redness and swelling; 1 point: redness but no swelling of the joint; 2 points: mild redness and swelling of the joint; 3 points: moderate redness and swelling of the joint; 4 points: severe redness and swelling of the joint accompanied by dysfunction of the joint. Each limb was scored separately, and the sum of the scores of each limb is the arthritis index of the mouse. The highest score is 16 points. The higher the score, the more severe the joint symptoms.

Assay [4] has as its system granulocytes and NK cells. The assay can be described thus: Proliferation (Ki-67) of granulocytes and NK cells in CIA arthritis mice (flow cytometry). As to conditions: intracellular Ki-67 expression; 21 days after second immunization; MEAN ± SEM. An excerpt: Test materials and animals: CD3-PerCP, NK1.1-APC antibody, Ki67-PE antibody, Intracellular Fixation & Permeabilization Buffer Set were purchased from eBioscience; CD48 PE, CD11b FITC and B220-FITC antibodies were purchased from BD Pharmingen company; other required reagents were the same as in Example 7.
Model preparation and drug administration: the administration dose of each treatment group was the same as that of Experimental Example 3. 21 days after the second immunization, the mice were anesthetized.
Animal: C57BL/6 mice, purchased from Beijing Huafukang Biotechnology Co., Ltd.
The proliferation capacity of the spleen Ki-67 expression response cell was detected by flow cytometry. Two tubes of spleen single cell suspension were prepared and used to detect the proliferation of CD48^−CD11b^+ positive granulocytes and CD3^−NK1.1^+B220^−NK cells.
The surface staining procedure was the same as in Experimental Example 7.
Intracellular staining: after surface staining, intracellular staining was performed: 1) added 100 μL of fixed membrane-breaking solution Fixation Buffer, protected it from light at room temperature, fixed the membrane for 40 min; 2) added 1 mL of Permeabilization Buffer and washed twice, discarded the supernatant 3) added 1 μL of Ki-67-PE antibody at room temperature and protected it from light for 40 min; 4) same as step 2); and 5) used flow cytometer BD Calibar to measure the percentages of intracellular Ki-67 expression in CD48^−CD11b+ positive granulocytes, and CD3^−[…]B220^−NK cells, respectively.
A general note: A flow cytometer gives signals particle by particle.

Molecules are shown by their SMILES.

Take `COc1ccc(C=CC(=O)O)cc1O` [isoferulic acid, 3-hydroxy-4-methoxycinnamic acid]: the ALT in assay [1] came out at 3573 ± 1314 U/L. In addition, in assay [1], the AST amounted to 4351 ± 1588 U/L. In addition, the “liver pathological damage (HE staining)” value in assay [2] is “reduced hepatocyte degeneration and necrosis”. In assay [3], the “Anti-type II collagen antibody” value is 9610 ± 664 Units/ml. Also, the arthritis index was 0 ± 0 with CIA arthritis mice (Day 0 after second immunization, gavage once every 3 days (Cimicifugae rhizoma 2 g/kg, isoferulic acid 5 mg/kg), max 16 points); 0.43 ± 0.28 with CIA arthritis mice (Day 3 after second immunization); 1.0 ± 0.61 in the assay on CIA arthritis mice (Day 6 after second immunization); 3.14 ± 0.77 with CIA arthritis mice (Day 9 after second immunization); 5.14 ± 0.98 with CIA arthritis mice (Day 12 after second immunization); 4.43 in the assay on CIA arthritis mice (Day 15 after second immunization, CIA group 8.43). This compound gave an arthritis index in the assay with CIA arthritis mice (Day 15 after second immunization, CIA group 8.43, listed as Isoferulic acid) of 5.71 ± 0.83. Also, the “swelling of paw joints (FIG. 3)” value in the assay on CIA arthritis mice (pictures of front and hind paw joints, versus CIA arthritis mice) was “significantly reduced”. Besides, the “Proliferation of Granulocytes, bone marros” value in assay [4] was 27.8 ± 8.2 %. The “Proliferation of Granulocytes, spleen” value in assay [4] stood at 26.8 ± 12.5 %. The “Proliferation of NK cells, spleen” value in assay [4] is 14 ± 9 %.
